Laboratory results published in patent publication US20050069544A1, “Pharmaceutical composition and a method of treatment” (priority 1998, published 2005).

Tests used:
[1] = system: CD3+ CD4+ T-helper cells of AIHA patients; experiment: Flow cytometry of CD3, CD4 and intracellular cytokines in PBMC from AIHA patients; format: cell-based, human; details: AIHA patient; FIGS. 24B to 24E
Description: The secretion of cytokines identified in Example 1.3 by T-helper cells is confirmed by flow cytometery analysis. Simultaneous measurement of surface molecules CD3 and CD4 and intracellular cytokines IFN-γ or IL-10 was carried out using three colour flow cytometry analysis in PBMC, isolated from RhD-alloimmunised donors, cultured with either no antigen or RhD peptide for five days after stimulation. All analysis was carried out using Expo v2 analysis software (applied Cytometry Systems). The CD3+ T-cells were gated open and the numbers of IFN-γ+ and CD4+ cells were assessed. In all donors tested there was a significant increase in the proportion of CD4+ IFN-γ+CD3+ T-cells to at least one of the RhD peptides tested. In the representative example shown in FIGS. 12A to 12L it can be seen that the proportion of CD4+ IFN-γ+cells was 4.2% in unstimulated cultures (FIG. 12E). […] The IL-10 and CD4+ expression was also assessed on CD3+ gated population of T-cells. In PBMC cultures isolated from the alloimmune donor shown, there was an increase in the proportion of CD4+ IL-10+T-cells from 2.4% in unstimulated PBMC cultures (FIG. 12I) to 6.5% in culture stimulated with RhD peptide 13 (FIG. 12J) to 6.2% in cultures stimulated with RhD peptide 17 (FIG. 12K) and 5.9% with RhD peptide 28 (FIG. 12L).
The secretion of cytokines identified in Example 2.3 by T-cells is confirmed utilising the experiments mentioned in Example 1.4, which were repeated using PBMC isolated from patients with AIHA.

[2] = system: PBMC from AIHA patients; experiment: celELISA of cytokine production by PBMC from AIHA patients; format: cell-based, human; details: AIHA patient (AIHA26); FIG. 24A
Description: Cultured T-cells are stimulated with each of the epitopes given in Table 1 and after 5 days the responding cells were transferred to flat-bottomed microtitre plates (96-well Nunc-Immuno Maxisorp) coated with […] per well of monoclonal anti-cytokine capture antibody diluted in 0.05M alkaline carbonate coating buffer pH 9.6. Unbound capture antibody was removed by two washes with HBSS and non-specific binding potential blocked by incubation with 200 μl per well of phosphate buffered saline, pH 7.4 (PBS containing 3% BSA). […]
After six washes with 0.5% Tween/PBS, 100 μl of 1:100,000 ExtrAvidin-alkaline phosphatase conjugate (Sigma) was then added to each of the wells and incubated at room temperature for 30 minutes. […] The absorbance at 405 nm was then measured using a Multiscan plate reader (Labsystems Basingstoke UK).
Cytokine secretion was measured by interpolation from a standard curve generated by incubating duplicate wells with doubling dilutions of recombinant human IFN-γ or IL-10 or TGF-β (Pharmingen). The standard curves were modelled by a smoothed cubic spline function applied to the absorbance reading and the cytokine concentrations after a quasilogarithmic transformation, where: quasiloge(z)=loge[z+{square root}[z^2+1]). […]

WMFWPSFNSALLRSP (Residue 217-231 RhD; listed as Homo sapiens) [compound 36]
CD3+ CD4+ T helper cells expressing intracellular IL-10 [1]: expansion of a CD3+ CD4+population of T helper cells | IL-10 production by PBMC [2]: induces the production of IL-10
